Test results: US5595983A, “Substituted piperazine 2-carboxylic acids useful in the treatment of central nervous system disorders” (British Technology Group Limited, priority 1984, dated 1997)
Where two headings read alike, the source gives them in different places.

How the values were obtained:
[1] = test system: 3-mercaptopropionate-induced convulsions; test: Anticonvulsant activity against 3-mercaptopropionate-induced convulsions in mice; type: in vivo; conditions: for Anti-convulsant Activity (mice): relative anticonvulsant potency: mice injected with 3-MP 100 mg/kg, 3-MP and phosphonates subcutaneously, relative to AP7 = 1.0
Description: ^2 Relative anticonvulsant potencies of substances in mice injected
with 3mercaptopropionic acid (3MP), 100 mg/kg; 3MP and the phosphonates

[2] = test system: motoneurones in the spinal cord; test: Depression of monosynaptic (MS) and polysynaptic (PS) excitation of motoneurones in isolated hemisected spinal cord, elicited by dorsal root stimulation; type: cell-based, rat; conditions: for inhibition at 500 µM: test conc. 500 μM; for inhibition at 100 µM: test conc. 100 μM
Description: To evaluate actions of substances at amino acid receptors on nerve cells (neurones), the substances may be tested on spinal cord neurones, which have similar characteristics to nerve cells in the brain.
^1 Monosynaptic (MS) and polysynaptic (PS) excitation of motoneurones
in the spinal cord from 4-8 day old rats was elicited by electrical
stimulation of a dorsal root and recorded from the corresponding ventral
root. Figures relate to the depression of the magnitude of the two
components as measured respectively from oscilloscope traces and chart

[3] = test system: ventral root synaptic potentials in spinal cord; test: Relative potency as depressants of spontaneous and dorsal root-evoked ventral root synaptic potentials in spinal cord of 4-day-old rat; type: cell-based; conditions: 4-day-old rat spinal cord, bath administration, relative to AP5 = 1.0
Description: (§1) ^1 Relative potencies of substances as antagonists of NMDAinduced
(§2) motoneuronal depolarization and as depressants of spontaneous and dorsal
(§3) rootevoked ventral root synaptic potentials in spinal cord of 4day-old
(§4) rat; bath administration of drugs.
(§5) 1 Relative potencies of substances as antagonists of NMDA-induced motoneuronal depolarization and as depressants of spontaneous and dorsal root-evoked ventral root synaptic potentials in spinal cord of 4-day-old rat; bath administration of drugs.

[4] = test system: neuronal NMDA receptors; test: Relative potency as antagonists of NMDA-induced motoneuronal depolarization in spinal cord of 4-day-old rat; type: cell-based; conditions: 4-day-old rat spinal cord; bath administration; relative to AP5 = 1.0 (higher = more potent)
Description: as §1, §2, §3, §4, §5

[5] = test system: N-methyl-D-aspartate (NMDA) receptors; test: Reversal of NMDA-induced motoneuronal depolarization, isolated 4-8 day old rat spinal cord; type: cell-based; conditions: Table 2
[6] = test system: quisqualate (Q) receptors; test: Reversal of quisqualate-induced motoneuronal depolarization, isolated 4-8 day old rat spinal cord; type: cell-based; conditions: Table 2
[7] = test system: kainate (K) receptors; test: Reversal of kainate-induced motoneuronal depolarization, isolated 4-8 day old rat spinal cord; type: cell-based; conditions: Table 2
[8] = monosynaptic component, 4-8 day old rat spinal cord, read-out: Synaptic Excitation Percent depression MS
[9] = polysynaptic component, 4-8 day old rat spinal cord, read-out: Synaptic Excitation Percent depression PS

NC(CCCP(=O)(O)O)C(=O)O (racemic) [AP5, 2-amino-5-phosphonopentanoic acid, reference compound]
Anti-convulsant Activity (mice): relative anticonvulsant potency [1]: 0.1 | inhibition at 2 µM ([2]; polysynaptic component, test conc. 2 μM, 4-8 day old rat spinal cord, read-out: Synaptic Excitation Percent depression PS): 27%

NC(CCCCCP(=O)(O)O)C(=O)O (racemic) [AP7, 2-amino-7-phosphonoheptanoic acid, reference compound]
Depression of synaptic excitation in rat spinal cord: relative potency (Synaptic) [3]: 0.75 | Depression of NMDA-induced excitation in rat spinal cord: relative potency (NMDA) [4]: 0.75 | inhibition at 3 µM ([2]; polysynaptic component, test conc. 3 μM, 4-8 day old rat spinal cord, read-out: Synaptic Excitation Percent depression PS): 28%

O=C(O)C1CN(CCCP(=O)(O)O)CCN1 (racemic) [CPP, 3-((±)-2-carboxypiperazin-4-yl)propyl-1-phosphonic acid]
Potency as antagonist of NMDA compared with AP5 and AP7 [5]: more potent | Anticonvulsant activity compared with AP7 ([1]; 3-mercaptopropionate-induced convulsions in mice, from Table 3): significantly higher anticonvulsant activity than AP7 | Anti-convulsant Activity (mice): relative anticonvulsant potency [1]: 2.5-5.0 | Depression of synaptic excitation in rat spinal cord: relative potency (Synaptic) [3]: 4 | Depression of NMDA-induced excitation in rat spinal cord: relative potency (NMDA) [4]: 6 | Potency as antagonist of polysynaptic spinal excitation compared with AP5 and AP7 ([2]; Table 2): more potent | inhibition at 0.5 µM ([2]; polysynaptic component, test conc. 0.5 μM (printed 0 · 5), 4-8 day old rat spinal cord, read-out: Synaptic Excitation Percent depression PS): 28%

O=C(O)C1CN(CCCS(=O)(=O)O)CCN1 (racemic) [CPS, 3-(±)-2-carboxypiperazin-4-yl)-propane-1-sulphonic acid]
inhibition at 500 µM [2, 8]: 6% | inhibition at 500 µM [2, 9]: 32%

O=C(O)C1NCCN(C(=O)c2ccc(Br)cc2)C1C(=O)O (centres unmarked) [BBP, 4-(4-bromobenzoyl)-piperazine-2,3-dicarboxylic acid]
Potency as antagonist of quisqualate-induced depolarizations compared with γDGG [6]: more potent antagonist | Potency as antagonist of kainate-induced depolarizations compared with γDGG [7]: more potent antagonist | Potency as depressant of monosynaptic excitation compared with γDGG ([2]; Table 2): more potent as a depressant of monosynaptic excitation | inhibition at 100 µM [2, 8]: 24% | inhibition at 100 µM [2, 9]: 8%

N[C@H](CCC(=O)NCC(=O)O)C(=O)O [γDGG, γ-D-glutamylglycine, reference compound]
inhibition at 700 µM ([2]; monosynaptic component, test conc. 700 μM, 4-8 day old rat spinal cord, read-out: Synaptic Excitation Percent depression MS): 24%
